From US8940742B2, “Heterocyclic compounds and uses thereof” (Infinity Pharmaceuticals, Inc., priority 2012, dated 2015)

Biological target: T1, Raw264.7 p110 γ (Mus musculus, UniProt Q9JHG7)
T1 construct: reduction of phospho-AKT in stimulated RAW 264.7 cells; endogenous in cells; host or cells: RAW264.7 macrophages
Experiment: Raw264.7 p110 γ cellular assay (phospho-AKT)
Format: cell-based
Settings: serum-starved RAW264.7 cells stimulated with C5a
Excerpt: (b) PI3K-γ Selective Assay
Briefly, serum-starved PAW264.7 cells are stimulated with a known GPCR agonist C5a. […] Cells can be treated with test compounds prior to, simultaneously with, or subsequent to the stimulation by C5a. RAW 264.7 cells respond to the complement component fragment C5a through activation of the C5a receptor, and the C5a receptor activates macrophages and induces cell migration.

IC50 | SMILES
< 100 nM | Cc1cc(C)n2nc(N)c(C(=O)N[C@@H](C)c3cc4cccc(Cl)c4c(=O)n3-c3ccccc3)c2n1 [Compound 152]
100 to 1000 nM | C[C@H](NC(=O)c1c(N)nn2cccnc12)c1cc2scc(-c3cnn(C)c3)c2c(=O)n1-c1ccccc1 [Compound 209]
< 100 nM | COc1cc(-c2cccc3cc([C@H](C)NC(=O)c4c(N)nn5cccnc45)n(C)c(=O)c23)ccn1 [Compound 220]
< 100 nM | C[C@H](NC(=O)c1nc(-c2cccc(NS(=O)(=O)C3CC3)c2)cnc1N)c1cc2cccc(Cl)c2c(=O)n1-c1ccccc1 [Compound 102]
100 to 1000 nM | Cc1ccn2ncc(C(=O)N[C@@H](C)c3cc4cccc(Cl)c4c(=O)n3-c3ccccc3)c2n1 [Compound 82]
100 to 1000 nM | C[C@H](NC(=O)c1c(N)nn2cccnc12)c1cc2cccc(C#CCCN)c2c(=O)n1-c1ccccc1 [Compound 154]
< 100 nM | C[C@H](NC(=O)c1c(N)nn2cccnc12)c1cc2cccc(C#CCNS(C)(=O)=O)c2c(=O)n1-c1ccccc1 [Compound 187]
100 to 1000 nM | C[C@H](NC(=O)c1c(N)nn2cccnc12)c1cc2cccc(C#CCN)c2c(=O)n1-c1ccccc1 [Compound 153]

Biological target: T2, PI3K γ (Homo sapiens, UniProt P48736)
T2 construct: purchased Millipore
T2 sequence (P48736 whole entry): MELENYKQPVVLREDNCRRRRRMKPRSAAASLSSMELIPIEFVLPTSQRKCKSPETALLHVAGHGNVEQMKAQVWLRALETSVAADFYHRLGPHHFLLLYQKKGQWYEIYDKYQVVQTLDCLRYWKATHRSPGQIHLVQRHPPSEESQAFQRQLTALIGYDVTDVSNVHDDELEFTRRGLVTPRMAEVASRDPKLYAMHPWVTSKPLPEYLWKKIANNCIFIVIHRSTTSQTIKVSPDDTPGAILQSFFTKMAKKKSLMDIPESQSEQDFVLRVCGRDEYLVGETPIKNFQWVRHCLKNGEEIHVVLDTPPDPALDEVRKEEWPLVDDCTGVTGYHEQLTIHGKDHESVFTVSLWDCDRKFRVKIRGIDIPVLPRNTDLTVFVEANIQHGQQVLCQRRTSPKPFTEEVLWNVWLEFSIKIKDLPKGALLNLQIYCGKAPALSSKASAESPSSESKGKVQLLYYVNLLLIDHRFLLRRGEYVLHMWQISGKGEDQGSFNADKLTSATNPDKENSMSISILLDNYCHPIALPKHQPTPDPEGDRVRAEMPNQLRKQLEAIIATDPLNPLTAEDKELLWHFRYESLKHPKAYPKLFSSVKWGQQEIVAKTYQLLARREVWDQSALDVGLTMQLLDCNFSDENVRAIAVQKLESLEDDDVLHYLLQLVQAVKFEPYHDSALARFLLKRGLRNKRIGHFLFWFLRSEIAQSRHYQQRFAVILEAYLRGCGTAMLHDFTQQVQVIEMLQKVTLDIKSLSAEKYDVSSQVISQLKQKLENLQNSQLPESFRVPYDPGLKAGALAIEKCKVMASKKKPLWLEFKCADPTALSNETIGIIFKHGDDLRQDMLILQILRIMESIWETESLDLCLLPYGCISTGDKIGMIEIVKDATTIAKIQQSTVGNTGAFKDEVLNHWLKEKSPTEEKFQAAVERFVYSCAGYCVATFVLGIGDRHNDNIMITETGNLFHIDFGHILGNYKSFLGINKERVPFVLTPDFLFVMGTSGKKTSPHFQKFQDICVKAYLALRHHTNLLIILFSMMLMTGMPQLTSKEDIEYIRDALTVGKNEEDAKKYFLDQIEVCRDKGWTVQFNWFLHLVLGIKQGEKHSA
Experiment: PI3-Kinase Promega ADP-Glo Max assay
Format: biochemical
Settings: 40 nM kinase, 3 mM ATP, 500 uM diC8-PtdInsP
In short: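 Human class I PI3K reactions ran 2 hours at room temperature, followed by stop solution (40 min) and detection mix (1 hour) before luminescence reading.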

IC50 | SMILES
100 to 1000 nM | Cc1cc(C)n2nc(N)c(C(=O)N[C@@H](C)c3cc4cccc(Cl)c4c(=O)n3-c3ccccc3)c2n1 [Compound 152]
1000 to 10000 nM | C[C@H](NC(=O)c1c(N)nn2cccnc12)c1cc2scc(-c3cnn(C)c3)c2c(=O)n1-c1ccccc1 [Compound 209]
1000 to 10000 nM | COc1cc(-c2cccc3cc([C@H](C)NC(=O)c4c(N)nn5cccnc45)n(C)c(=O)c23)ccn1 [Compound 220]
< 100 nM | C[C@H](NC(=O)c1nc(-c2cccc(NS(=O)(=O)C3CC3)c2)cnc1N)c1cc2cccc(Cl)c2c(=O)n1-c1ccccc1 [Compound 102]
1000 to 10000 nM | Cc1ccn2ncc(C(=O)N[C@@H](C)c3cc4cccc(Cl)c4c(=O)n3-c3ccccc3)c2n1 [Compound 82]
100 to 1000 nM | C[C@H](NC(=O)c1c(N)nn2cccnc12)c1cc2cccc(C#CCCN)c2c(=O)n1-c1ccccc1 [Compound 154]
100 to 1000 nM | C[C@H](NC(=O)c1c(N)nn2cccnc12)c1cc2cccc(C#CCNS(C)(=O)=O)c2c(=O)n1-c1ccccc1 [Compound 187]
100 to 1000 nM | C[C@H](NC(=O)c1c(N)nn2cccnc12)c1cc2cccc(C#CCN)c2c(=O)n1-c1ccccc1 [Compound 153]

Biological target: T3, PI3K δ (Homo sapiens, UniProt O00329)
T3 construct: purchased Millipore
Experiment: PI3-Kinase Promega ADP-Glo Max assay
Format: biochemical
Settings: 20 nM kinase, 3 mM ATP, 500 uM diC8-PtdInsP
In short: (§1)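 Human class I PI3K (20 nM α or δ, 40 nM β) pre-incubated 15 min with compound in HEPES pH 7.4 buffer with MgCl2, then reacted 2 h at room temperature with 3 mM ATP and 500 uM diC8-PtdInsP. ADP measured by ADP-Glo Max luminescence; % inhibition fitted to 4-parameter logistic for IC50.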

IC50 | SMILES
1000 to 10000 nM | Cc1cc(C)n2nc(N)c(C(=O)N[C@@H](C)c3cc4cccc(Cl)c4c(=O)n3-c3ccccc3)c2n1 [Compound 152]
> 10000 nM | C[C@H](NC(=O)c1c(N)nn2cccnc12)c1cc2scc(-c3cnn(C)c3)c2c(=O)n1-c1ccccc1 [Compound 209]
1000 to 10000 nM | COc1cc(-c2cccc3cc([C@H](C)NC(=O)c4c(N)nn5cccnc45)n(C)c(=O)c23)ccn1 [Compound 220]
1000 to 10000 nM | C[C@H](NC(=O)c1nc(-c2cccc(NS(=O)(=O)C3CC3)c2)cnc1N)c1cc2cccc(Cl)c2c(=O)n1-c1ccccc1 [Compound 102]
1000 to 10000 nM | Cc1ccn2ncc(C(=O)N[C@@H](C)c3cc4cccc(Cl)c4c(=O)n3-c3ccccc3)c2n1 [Compound 82]
1000 to 10000 nM | C[C@H](NC(=O)c1c(N)nn2cccnc12)c1cc2cccc(C#CCCN)c2c(=O)n1-c1ccccc1 [Compound 154]
1000 to 10000 nM | C[C@H](NC(=O)c1c(N)nn2cccnc12)c1cc2cccc(C#CCNS(C)(=O)=O)c2c(=O)n1-c1ccccc1 [Compound 187]
1000 to 10000 nM | C[C@H](NC(=O)c1c(N)nn2cccnc12)c1cc2cccc(C#CCN)c2c(=O)n1-c1ccccc1 [Compound 153]

Biological target: T4, PI3K α (Homo sapiens, UniProt P42336)
T4 construct: purchased Millipore
T4 sequence (P42336 whole entry): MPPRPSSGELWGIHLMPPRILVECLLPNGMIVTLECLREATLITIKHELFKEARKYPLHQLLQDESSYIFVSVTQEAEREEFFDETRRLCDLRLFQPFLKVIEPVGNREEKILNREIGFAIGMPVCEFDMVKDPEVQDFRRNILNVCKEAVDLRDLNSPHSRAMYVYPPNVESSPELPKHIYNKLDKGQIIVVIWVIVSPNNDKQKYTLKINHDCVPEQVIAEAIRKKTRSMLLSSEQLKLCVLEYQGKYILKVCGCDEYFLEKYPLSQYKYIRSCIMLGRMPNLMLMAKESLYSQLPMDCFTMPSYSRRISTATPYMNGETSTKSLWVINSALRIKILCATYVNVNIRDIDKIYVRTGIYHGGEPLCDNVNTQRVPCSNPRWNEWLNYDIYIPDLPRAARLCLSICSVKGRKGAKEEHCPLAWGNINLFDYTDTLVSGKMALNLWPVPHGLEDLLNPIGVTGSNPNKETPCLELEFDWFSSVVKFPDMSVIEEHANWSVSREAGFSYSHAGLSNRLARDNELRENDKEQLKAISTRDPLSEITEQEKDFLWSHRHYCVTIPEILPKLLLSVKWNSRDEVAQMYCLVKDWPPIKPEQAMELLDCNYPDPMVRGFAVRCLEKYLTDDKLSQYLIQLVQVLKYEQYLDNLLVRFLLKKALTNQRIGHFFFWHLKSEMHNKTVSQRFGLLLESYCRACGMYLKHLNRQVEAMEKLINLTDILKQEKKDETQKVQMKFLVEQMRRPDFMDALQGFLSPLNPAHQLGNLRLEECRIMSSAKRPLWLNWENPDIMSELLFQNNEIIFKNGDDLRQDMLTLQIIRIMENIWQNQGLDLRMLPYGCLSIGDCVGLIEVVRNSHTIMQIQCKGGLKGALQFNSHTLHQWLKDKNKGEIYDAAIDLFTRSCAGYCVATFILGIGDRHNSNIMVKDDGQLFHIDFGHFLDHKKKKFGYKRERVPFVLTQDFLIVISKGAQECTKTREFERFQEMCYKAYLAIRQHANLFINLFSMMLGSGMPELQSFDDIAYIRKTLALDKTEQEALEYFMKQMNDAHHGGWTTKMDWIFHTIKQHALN
T4 sequence (P27986 whole entry partner): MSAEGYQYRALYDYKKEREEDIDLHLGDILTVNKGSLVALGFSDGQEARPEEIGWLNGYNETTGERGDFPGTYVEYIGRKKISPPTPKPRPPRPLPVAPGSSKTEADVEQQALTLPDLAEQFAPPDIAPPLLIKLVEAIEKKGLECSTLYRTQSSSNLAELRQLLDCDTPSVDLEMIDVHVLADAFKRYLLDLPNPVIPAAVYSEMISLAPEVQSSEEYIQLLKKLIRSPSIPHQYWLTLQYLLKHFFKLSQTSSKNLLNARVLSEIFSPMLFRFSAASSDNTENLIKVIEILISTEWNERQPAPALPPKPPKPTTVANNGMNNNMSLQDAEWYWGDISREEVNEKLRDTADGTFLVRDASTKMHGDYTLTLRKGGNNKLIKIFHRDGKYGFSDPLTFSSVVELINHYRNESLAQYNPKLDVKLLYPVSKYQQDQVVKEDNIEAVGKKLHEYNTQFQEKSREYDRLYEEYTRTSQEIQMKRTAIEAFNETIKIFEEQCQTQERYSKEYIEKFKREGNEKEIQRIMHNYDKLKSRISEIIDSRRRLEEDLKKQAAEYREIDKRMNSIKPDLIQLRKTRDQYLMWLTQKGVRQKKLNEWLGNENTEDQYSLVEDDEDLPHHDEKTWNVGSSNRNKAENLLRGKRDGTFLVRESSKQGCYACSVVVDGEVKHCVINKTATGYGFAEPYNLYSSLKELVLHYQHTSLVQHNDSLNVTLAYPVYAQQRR
Experiment: PI3-Kinase Promega ADP-Glo Max assay
Format: biochemical
Settings: 20 nM kinase, 3 mM ATP, 500 uM diC8-PtdInsP
In short: as §1

IC50 | SMILES
1000 to 10000 nM | Cc1cc(C)n2nc(N)c(C(=O)N[C@@H](C)c3cc4cccc(Cl)c4c(=O)n3-c3ccccc3)c2n1 [Compound 152]
> 10000 nM | C[C@H](NC(=O)c1c(N)nn2cccnc12)c1cc2scc(-c3cnn(C)c3)c2c(=O)n1-c1ccccc1 [Compound 209]
1000 to 10000 nM | COc1cc(-c2cccc3cc([C@H](C)NC(=O)c4c(N)nn5cccnc45)n(C)c(=O)c23)ccn1 [Compound 220]
1000 to 10000 nM | C[C@H](NC(=O)c1nc(-c2cccc(NS(=O)(=O)C3CC3)c2)cnc1N)c1cc2cccc(Cl)c2c(=O)n1-c1ccccc1 [Compound 102]
> 10000 nM | Cc1ccn2ncc(C(=O)N[C@@H](C)c3cc4cccc(Cl)c4c(=O)n3-c3ccccc3)c2n1 [Compound 82]
1000 to 10000 nM | C[C@H](NC(=O)c1c(N)nn2cccnc12)c1cc2cccc(C#CCCN)c2c(=O)n1-c1ccccc1 [Compound 154]
1000 to 10000 nM | C[C@H](NC(=O)c1c(N)nn2cccnc12)c1cc2cccc(C#CCNS(C)(=O)=O)c2c(=O)n1-c1ccccc1 [Compound 187]
1000 to 10000 nM | C[C@H](NC(=O)c1c(N)nn2cccnc12)c1cc2cccc(C#CCN)c2c(=O)n1-c1ccccc1 [Compound 153]

Biological target: T5, PI3K β (Homo sapiens, UniProt P42338)
T5 construct: purchased Millipore
T5 sequence (P42338 whole entry): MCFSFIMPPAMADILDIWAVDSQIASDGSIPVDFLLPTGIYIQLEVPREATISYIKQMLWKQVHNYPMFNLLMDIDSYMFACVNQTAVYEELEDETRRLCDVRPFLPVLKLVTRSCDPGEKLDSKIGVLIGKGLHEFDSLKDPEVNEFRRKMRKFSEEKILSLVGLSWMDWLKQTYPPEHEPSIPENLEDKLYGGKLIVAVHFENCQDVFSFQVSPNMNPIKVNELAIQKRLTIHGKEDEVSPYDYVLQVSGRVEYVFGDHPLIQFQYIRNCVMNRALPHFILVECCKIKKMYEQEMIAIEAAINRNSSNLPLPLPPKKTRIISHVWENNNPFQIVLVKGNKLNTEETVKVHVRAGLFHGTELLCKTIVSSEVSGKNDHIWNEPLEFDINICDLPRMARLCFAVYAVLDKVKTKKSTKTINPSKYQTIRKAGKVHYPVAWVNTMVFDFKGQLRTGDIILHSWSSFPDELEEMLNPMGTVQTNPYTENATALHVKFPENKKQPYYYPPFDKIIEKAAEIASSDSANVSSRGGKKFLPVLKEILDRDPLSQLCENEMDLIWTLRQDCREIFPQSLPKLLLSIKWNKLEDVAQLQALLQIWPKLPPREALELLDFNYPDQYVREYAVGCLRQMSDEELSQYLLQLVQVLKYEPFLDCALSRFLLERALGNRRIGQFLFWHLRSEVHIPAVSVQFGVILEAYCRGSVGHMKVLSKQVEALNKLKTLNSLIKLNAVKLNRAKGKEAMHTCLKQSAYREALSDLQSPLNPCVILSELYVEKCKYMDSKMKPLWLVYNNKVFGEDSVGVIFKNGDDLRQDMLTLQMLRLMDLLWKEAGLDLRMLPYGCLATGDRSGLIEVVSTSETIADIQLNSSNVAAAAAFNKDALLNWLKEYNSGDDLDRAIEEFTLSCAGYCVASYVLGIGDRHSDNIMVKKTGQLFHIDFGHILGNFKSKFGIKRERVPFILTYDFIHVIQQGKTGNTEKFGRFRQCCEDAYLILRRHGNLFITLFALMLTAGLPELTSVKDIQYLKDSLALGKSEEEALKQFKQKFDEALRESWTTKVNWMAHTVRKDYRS
T5 sequence (P27986 whole entry partner): as the sequence (P27986 whole entry partner) above
Experiment: PI3-Kinase Promega ADP-Glo Max assay
Format: biochemical
Settings: 40 nM kinase, 3 mM ATP, 500 uM diC8-PtdInsP
In short: as §1

IC50 | SMILES
100 to 1000 nM | Cc1cc(C)n2nc(N)c(C(=O)N[C@@H](C)c3cc4cccc(Cl)c4c(=O)n3-c3ccccc3)c2n1 [Compound 152]
> 10000 nM | C[C@H](NC(=O)c1c(N)nn2cccnc12)c1cc2scc(-c3cnn(C)c3)c2c(=O)n1-c1ccccc1 [Compound 209]
> 10000 nM | COc1cc(-c2cccc3cc([C@H](C)NC(=O)c4c(N)nn5cccnc45)n(C)c(=O)c23)ccn1 [Compound 220]
100 to 1000 nM | C[C@H](NC(=O)c1nc(-c2cccc(NS(=O)(=O)C3CC3)c2)cnc1N)c1cc2cccc(Cl)c2c(=O)n1-c1ccccc1 [Compound 102]
1000 to 10000 nM | Cc1ccn2ncc(C(=O)N[C@@H](C)c3cc4cccc(Cl)c4c(=O)n3-c3ccccc3)c2n1 [Compound 82]
1000 to 10000 nM | C[C@H](NC(=O)c1c(N)nn2cccnc12)c1cc2cccc(C#CCCN)c2c(=O)n1-c1ccccc1 [Compound 154]
1000 to 10000 nM | C[C@H](NC(=O)c1c(N)nn2cccnc12)c1cc2cccc(C#CCNS(C)(=O)=O)c2c(=O)n1-c1ccccc1 [Compound 187]
1000 to 10000 nM | C[C@H](NC(=O)c1c(N)nn2cccnc12)c1cc2cccc(C#CCN)c2c(=O)n1-c1ccccc1 [Compound 153]

Biological target: RAJI p110 δ (Homo sapiens, UniProt O00329)
Sequence (O00329 whole entry): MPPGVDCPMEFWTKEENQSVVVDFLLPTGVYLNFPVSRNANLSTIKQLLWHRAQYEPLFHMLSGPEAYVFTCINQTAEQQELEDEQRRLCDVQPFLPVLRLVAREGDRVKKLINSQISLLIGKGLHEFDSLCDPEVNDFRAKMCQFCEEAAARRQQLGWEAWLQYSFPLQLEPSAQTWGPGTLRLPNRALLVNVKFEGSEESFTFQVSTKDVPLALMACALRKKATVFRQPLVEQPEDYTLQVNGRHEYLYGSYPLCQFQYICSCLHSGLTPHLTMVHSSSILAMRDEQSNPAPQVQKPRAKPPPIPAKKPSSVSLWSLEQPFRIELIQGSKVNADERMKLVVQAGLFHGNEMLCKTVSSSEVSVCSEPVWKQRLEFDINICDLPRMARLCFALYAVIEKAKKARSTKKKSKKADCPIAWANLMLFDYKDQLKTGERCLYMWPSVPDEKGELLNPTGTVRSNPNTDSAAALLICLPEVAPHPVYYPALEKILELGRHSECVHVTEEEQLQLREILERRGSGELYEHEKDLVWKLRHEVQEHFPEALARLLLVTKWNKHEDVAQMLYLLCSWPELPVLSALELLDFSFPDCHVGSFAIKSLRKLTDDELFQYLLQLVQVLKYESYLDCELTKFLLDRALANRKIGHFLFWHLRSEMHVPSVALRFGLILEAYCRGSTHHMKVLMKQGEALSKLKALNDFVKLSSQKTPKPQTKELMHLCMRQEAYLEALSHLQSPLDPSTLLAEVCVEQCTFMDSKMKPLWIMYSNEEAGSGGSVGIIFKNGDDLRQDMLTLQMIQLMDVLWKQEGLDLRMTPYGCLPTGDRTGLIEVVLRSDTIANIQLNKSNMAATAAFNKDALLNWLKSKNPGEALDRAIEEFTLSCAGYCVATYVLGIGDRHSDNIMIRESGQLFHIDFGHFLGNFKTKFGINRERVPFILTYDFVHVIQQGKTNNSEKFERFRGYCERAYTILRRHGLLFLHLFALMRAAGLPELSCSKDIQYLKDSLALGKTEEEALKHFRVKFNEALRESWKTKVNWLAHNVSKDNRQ
Sequence (P27986 whole entry partner): as the sequence (P27986 whole entry partner) above
Experiment: RAJI p110 δ cellular assay (phospho-AKT);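 further: potency based on lowered phosphorylated AKT in RAJI cells, as a readout of PI3K-δ dependent B-cell receptor signaling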
Settings: not given

IC50 | SMILES
< 100 nM | Cc1cc(C)n2nc(N)c(C(=O)N[C@@H](C)c3cc4cccc(Cl)c4c(=O)n3-c3ccccc3)c2n1 [Compound 152]
1000 to 10000 nM | C[C@H](NC(=O)c1c(N)nn2cccnc12)c1cc2scc(-c3cnn(C)c3)c2c(=O)n1-c1ccccc1 [Compound 209]
< 100 nM | COc1cc(-c2cccc3cc([C@H](C)NC(=O)c4c(N)nn5cccnc45)n(C)c(=O)c23)ccn1 [Compound 220]
< 100 nM | C[C@H](NC(=O)c1nc(-c2cccc(NS(=O)(=O)C3CC3)c2)cnc1N)c1cc2cccc(Cl)c2c(=O)n1-c1ccccc1 [Compound 102]
100 to 1000 nM | Cc1ccn2ncc(C(=O)N[C@@H](C)c3cc4cccc(Cl)c4c(=O)n3-c3ccccc3)c2n1 [Compound 82]
100 to 1000 nM | C[C@H](NC(=O)c1c(N)nn2cccnc12)c1cc2cccc(C#CCCN)c2c(=O)n1-c1ccccc1 [Compound 154]
100 to 1000 nM | C[C@H](NC(=O)c1c(N)nn2cccnc12)c1cc2cccc(C#CCNS(C)(=O)=O)c2c(=O)n1-c1ccccc1 [Compound 187]
100 to 1000 nM | C[C@H](NC(=O)c1c(N)nn2cccnc12)c1cc2cccc(C#CCN)c2c(=O)n1-c1ccccc1 [Compound 153]
